Assay results as given in BindingDB's records for doi:10.1021/jm500763m (Beijing Institute of Pharmacology & Toxicology, 2014).
Square brackets hold non-standard residues; d marks the D form. Peptide text beside a SMILES is read from it. * marks the point of attachment. X9 = C=CCOC(=O)[C@]12CC[C@@H](C)[C@H](C)[C@H]1C1=CC[C@@H]3[C@@]4(C)CC[C@H](OC(=O)CCc5cn(CC(=O)*)nn5)C(C)(C)[C@@H]4CC[C@@]3(C)[C@]1(C)CC2; X5 = C=C(C)[C@@H]1CC[C@]2(C(=O)OCc3cn(CC(=O)*)nn3)CC[C@]3(C)[C@H](CC[C@@H]4[C@@]5(C)CC[C@H](OC(C)=O)C(C)(C)[C@@H]5CC[C@]43C)[C@@H]12; X8 = C[C@H]1[C@H](C)CC[C@]2(C(=O)O)CC[C@]3(C)C(=CC[C@@H]4[C@@]5(C)CC[C@H](OC(=O)CCc6cn(CC(=O)*)nn6)C(C)(C)[C@@H]5CC[C@]43C)[C@H]12; X2 = C=CCOC(=O)[C@]12CCC(C)(C)C[C@H]1C1=CC[C@@H]3[C@@]4(C)CC[C@H](OC(=O)CCc5cn(CC(=O)*)nn5)C(C)(C)[C@@H]4CC[C@@]3(C)[C@]1(C)CC2; X4 = C=C(C)[C@@H]1CC[C@]2(C(=O)OCc3cn(CC(=O)*)nn3)CC[C@]3(C)[C@H](CC[C@@H]4[C@@]5(C)CC[C@H](O)C(C)(C)[C@@H]5CC[C@]43C)[C@@H]12; X6 = CC1(C)CC[C@]2(C(=O)O)CC[C@]3(C)C(=CC[C@@H]4[C@@]5(C)CC[C@H](OC(=O)CCc6cn(CC(=O)*)nn6)C(C)(C)[C@@H]5CC[C@]43C)[C@@H]2C1; X11 = CCCc1cn(CC(=O)*)nn1; βAla = NCCC(=O)O

Test: Inhibition of HIV1 gp41-induced cell-cell fusion between viral envelope expressing human HL2/3 cells to CD4/CCR5 receptor expressing TZM-bl cells after 6 to 8 hrs by luciferase assay

EC50 [nM] | Structure (SMILES)
7.9 | C=C(C)[C@@H]1CC[C@]2(C(=O)OCc3cn(CC(=O)NCCCC[C@H](NC(=O)CCNC(=O)[C@H](CC(C)C)NC(=O)[C@H](CC(C)C)NC(=O)[C@H](CCC(=O)O)NC(=O)[C@H](CCC(N)=O)NC(=O)[C@H](CCC(=O)O)NC(=O)[C@H](CC(N)=O)NC(=O)[C@H](CCCCN)NC(=O)[C@H](CCC(=O)O)NC(=O)[C@H](CCC(N)=O)NC(=O)[C@H](CCC(N)=O)NC(=O)[C@H](CC(N)=O)NC(=O)[C@H](CCC(N)=O)NC(=O)[C@H](CO)NC(=O)[C@H](CCC(=O)O)NC(=O)[C@H](CCC(=O)O)NC(=O)[C@@H](NC(=O)[C@H](CC(C)C)NC(=O)[C@H](CO)NC(=O)[C@H](Cc4cnc[nH]4)NC(=O)[C@@H](NC(=O)[C@H](CC(C)C)NC(=O)[C@H](CO)NC(=O)[C@@H](NC(=O)[C@H](Cc4ccc(O)cc4)NC(=O)[C@H](CC(N)=O)NC(=O)[C@H](CC(N)=O)NC(C)=O)[C@@H](C)O)[C@@H](C)CC)[C@@H](C)CC)C(N)=O)nn3)CC[C@]3(C)[C@H](CC[C@@H]4[C@@]5(C)CC[C@H](OC(C)=O)C(C)(C)[C@@H]5CC[C@]43C)[C@@H]12 (Ac-NNYTSLIHSLIEESQNQQEKNEQELL[βAla]K(X5)-NH2)
29 | CC[C@H](C)[C@H](NC(=O)[C@H](CC(C)C)NC(=O)[C@H](CO)NC(=O)[C@H](Cc1cnc[nH]1)NC(=O)[C@@H](NC(=O)[C@H](CC(C)C)NC(=O)[C@H](CO)NC(=O)[C@@H](NC(=O)[C@H](Cc1ccc(O)cc1)NC(=O)[C@H](CC(N)=O)NC(=O)[C@H](CC(N)=O)NC(=O)CCNC(=O)Cn1cc(CCC(=O)O[C@H]2CC[C@]3(C)[C@H]4CC=C5[C@@H]6CC(C)(C)CC[C@]6(C(=O)O)CC[C@@]5(C)[C@]4(C)CC[C@H]3C2(C)C)nn1)[C@@H](C)O)[C@@H](C)CC)C(=O)N[C@@H](CCC(=O)O)C(=O)N[C@@H](CCC(=O)O)C(=O)N[C@@H](CO)C(=O)N[C@@H](CCC(N)=O)C(=O)N[C@@H](CC(N)=O)C(=O)N[C@@H](CCC(N)=O)C(=O)N[C@@H](CCC(N)=O)C(=O)N[C@@H](CCC(=O)O)C(=O)N[C@@H](CCCCN)C(=O)N[C@@H](CC(N)=O)C(=O)N[C@@H](CCC(=O)O)C(=O)N[C@@H](CCC(N)=O)C(=O)N[C@@H](CCC(=O)O)C(=O)N[C@@H](CC(C)C)C(=O)N[C@@H](CC(C)C)C(N)=O ({X6-βAla}-NNYTSLIHSLIEESQNQQEKNEQELL-NH2)
20 | C=C(C)[C@@H]1CC[C@]2(C(=O)OCc3cn(CC(=O)NCCCC[C@H](NC(=O)CCNC(=O)[C@H](CC(C)C)NC(=O)[C@H](CC(C)C)NC(=O)[C@H](CCC(=O)O)NC(=O)[C@H](CCC(N)=O)NC(=O)[C@H](CCC(=O)O)NC(=O)[C@H](CC(N)=O)NC(=O)[C@H](CCCCN)NC(=O)[C@H](CCC(=O)O)NC(=O)[C@H](CCC(N)=O)NC(=O)[C@H](CCC(N)=O)NC(=O)[C@H](CC(N)=O)NC(=O)[C@H](CCC(N)=O)NC(=O)[C@H](CO)NC(=O)[C@H](CCC(=O)O)NC(=O)[C@H](CCC(=O)O)NC(=O)[C@@H](NC(=O)[C@H](CC(C)C)NC(=O)[C@H](CO)NC(=O)[C@H](Cc4cnc[nH]4)NC(=O)[C@@H](NC(=O)[C@H](CC(C)C)NC(=O)[C@H](CO)NC(=O)[C@@H](NC(=O)[C@H](Cc4ccc(O)cc4)NC(=O)[C@H](CC(N)=O)NC(=O)[C@H](CC(N)=O)NC(C)=O)[C@@H](C)O)[C@@H](C)CC)[C@@H](C)CC)C(N)=O)nn3)CC[C@]3(C)[C@H](CC[C@@H]4[C@@]5(C)CC[C@H](O)C(C)(C)[C@@H]5CC[C@]43C)[C@@H]12 (Ac-NNYTSLIHSLIEESQNQQEKNEQELL[βAla]K(X4)-NH2)
3580 | CCCc1cn(CC(=O)NCCC(=O)N[C@@H](CC(N)=O)C(=O)N[C@@H](CC(N)=O)C(=O)N[C@@H](Cc2ccc(O)cc2)C(=O)N[C@H](C(=O)N[C@@H](CO)C(=O)N[C@@H](CC(C)C)C(=O)N[C@H](C(=O)N[C@@H](Cc2cnc[nH]2)C(=O)N[C@@H](CO)C(=O)N[C@@H](CC(C)C)C(=O)N[C@H](C(=O)N[C@@H](CCC(=O)O)C(=O)N[C@@H](CCC(=O)O)C(=O)N[C@@H](CO)C(=O)N[C@@H](CCC(N)=O)C(=O)N[C@@H](CC(N)=O)C(=O)N[C@@H](CCC(N)=O)C(=O)N[C@@H](CCC(N)=O)C(=O)N[C@@H](CCC(=O)O)C(=O)N[C@@H](CCCCN)C(=O)N[C@@H](CC(N)=O)C(=O)N[C@@H](CCC(=O)O)C(=O)N[C@@H](CCC(N)=O)C(=O)N[C@@H](CCC(=O)O)C(=O)N[C@@H](CC(C)C)C(=O)N[C@@H](CC(C)C)C(N)=O)[C@@H](C)CC)[C@@H](C)CC)[C@@H](C)O)nn1 ({X11-βAla}-NNYTSLIHSLIEESQNQQEKNEQELL-NH2)
89 | C=C(C)[C@@H]1CC[C@]2(C(=O)OCc3cn(CC(=O)NCCC(=O)N[C@@H](CC(N)=O)C(=O)N[C@@H](CC(N)=O)C(=O)N[C@@H](Cc4ccc(O)cc4)C(=O)N[C@H](C(=O)N[C@@H](CO)C(=O)N[C@@H](CC(C)C)C(=O)N[C@H](C(=O)N[C@@H](Cc4cnc[nH]4)C(=O)N[C@@H](CO)C(=O)N[C@@H](CC(C)C)C(=O)N[C@H](C(=O)N[C@@H](CCC(=O)O)C(=O)N[C@@H](CCC(=O)O)C(=O)N[C@@H](CO)C(=O)N[C@@H](CCC(N)=O)C(=O)N[C@@H](CC(N)=O)C(=O)N[C@@H](CCC(N)=O)C(=O)N[C@@H](CCC(N)=O)C(=O)N[C@@H](CCC(=O)O)C(=O)N[C@@H](CCCCN)C(=O)N[C@@H](CC(N)=O)C(=O)N[C@@H](CCC(=O)O)C(=O)N[C@@H](CCC(N)=O)C(=O)N[C@@H](CCC(=O)O)C(=O)N[C@@H](CC(C)C)C(=O)N[C@@H](CC(C)C)C(N)=O)[C@@H](C)CC)[C@@H](C)CC)[C@@H](C)O)nn3)CC[C@]3(C)[C@H](CC[C@@H]4[C@@]5(C)CC[C@H](O)C(C)(C)[C@@H]5CC[C@]43C)[C@@H]12 ({X4-βAla}-NNYTSLIHSLIEESQNQQEKNEQELL-NH2)
3.4 | C=CCOC(=O)[C@]12CC[C@@H](C)[C@H](C)[C@H]1C1=CC[C@@H]3[C@@]4(C)CC[C@H](OC(=O)CCc5cn(CC(=O)NCCCC[C@H](NC(=O)CCNC(=O)[C@H](CC(C)C)NC(=O)[C@H](CC(C)C)NC(=O)[C@H](CCC(=O)O)NC(=O)[C@H](CCC(N)=O)NC(=O)[C@H](CCC(=O)O)NC(=O)[C@H](CC(N)=O)NC(=O)[C@H](CCCCN)NC(=O)[C@H](CCC(=O)O)NC(=O)[C@H](CCC(N)=O)NC(=O)[C@H](CCC(N)=O)NC(=O)[C@H](CC(N)=O)NC(=O)[C@H](CCC(N)=O)NC(=O)[C@H](CO)NC(=O)[C@H](CCC(=O)O)NC(=O)[C@H](CCC(=O)O)NC(=O)[C@@H](NC(=O)[C@H](CC(C)C)NC(=O)[C@H](CO)NC(=O)[C@H](Cc6cnc[nH]6)NC(=O)[C@@H](NC(=O)[C@H](CC(C)C)NC(=O)[C@H](CO)NC(=O)[C@@H](NC(=O)[C@H](Cc6ccc(O)cc6)NC(=O)[C@H](CC(N)=O)NC(=O)[C@H](CC(N)=O)NC(C)=O)[C@@H](C)O)[C@@H](C)CC)[C@@H](C)CC)C(N)=O)nn5)C(C)(C)[C@@H]4CC[C@@]3(C)[C@]1(C)CC2 (Ac-NNYTSLIHSLIEESQNQQEKNEQELL[βAla]K(X9)-NH2)
52 | CC[C@H](C)[C@H](NC(=O)[C@H](CC(C)C)NC(=O)[C@H](CO)NC(=O)[C@H](Cc1cnc[nH]1)NC(=O)[C@@H](NC(=O)[C@H](CC(C)C)NC(=O)[C@H](CO)NC(=O)[C@@H](NC(=O)[C@H](Cc1ccc(O)cc1)NC(=O)[C@H](CC(N)=O)NC(=O)[C@H](CC(N)=O)NC(=O)CCNC(=O)Cn1cc(CCC(=O)O[C@H]2CC[C@]3(C)[C@H]4CC=C5[C@@H]6[C@@H](C)[C@H](C)CC[C@]6(C(=O)O)CC[C@@]5(C)[C@]4(C)CC[C@H]3C2(C)C)nn1)[C@@H](C)O)[C@@H](C)CC)C(=O)N[C@@H](CCC(=O)O)C(=O)N[C@@H](CCC(=O)O)C(=O)N[C@@H](CO)C(=O)N[C@@H](CCC(N)=O)C(=O)N[C@@H](CC(N)=O)C(=O)N[C@@H](CCC(N)=O)C(=O)N[C@@H](CCC(N)=O)C(=O)N[C@@H](CCC(=O)O)C(=O)N[C@@H](CCCCN)C(=O)N[C@@H](CC(N)=O)C(=O)N[C@@H](CCC(=O)O)C(=O)N[C@@H](CCC(N)=O)C(=O)N[C@@H](CCC(=O)O)C(=O)N[C@@H](CC(C)C)C(=O)N[C@@H](CC(C)C)C(N)=O ({X8-βAla}-NNYTSLIHSLIEESQNQQEKNEQELL-NH2)
3240 | CC[C@H](C)[C@H](NC(=O)[C@H](CC(C)C)NC(=O)[C@H](CO)NC(=O)[C@H](Cc1cnc[nH]1)NC(=O)[C@@H](NC(=O)[C@H](CC(C)C)NC(=O)[C@H](CO)NC(=O)[C@@H](NC(=O)[C@H](Cc1ccc(O)cc1)NC(=O)[C@H](CC(N)=O)NC(=O)[C@H](CC(N)=O)NC(C)=O)[C@@H](C)O)[C@@H](C)CC)C(=O)N[C@@H](CCC(=O)O)C(=O)N[C@@H](CCC(=O)O)C(=O)N[C@@H](CO)C(=O)N[C@@H](CCC(N)=O)C(=O)N[C@@H](CC(N)=O)C(=O)N[C@@H](CCC(N)=O)C(=O)N[C@@H](CCC(N)=O)C(=O)N[C@@H](CCC(=O)O)C(=O)N[C@@H](CCCCN)C(=O)N[C@@H](CC(N)=O)C(=O)N[C@@H](CCC(=O)O)C(=O)N[C@@H](CCC(N)=O)C(=O)N[C@@H](CCC(=O)O)C(=O)N[C@@H](CC(C)C)C(=O)N[C@@H](CC(C)C)C(N)=O (Ac-NNYTSLIHSLIEESQNQQEKNEQELL-NH2)
> 100000 | CC1(C)CC[C@]2(C(=O)O)CC[C@]3(C)C(=CC[C@@H]4[C@@]5(C)CC[C@H](O)C(C)(C)[C@@H]5CC[C@]43C)[C@@H]2C1 [Oleanolic acid (OA)(Compound 1)]
3.3 | C=CCOC(=O)[C@]12CCC(C)(C)C[C@H]1C1=CC[C@@H]3[C@@]4(C)CC[C@H](OC(=O)CCc5cn(CC(=O)NCCCC[C@H](NC(=O)CCNC(=O)[C@H](CC(C)C)NC(=O)[C@H](CC(C)C)NC(=O)[C@H](CCC(=O)O)NC(=O)[C@H](CCC(N)=O)NC(=O)[C@H](CCC(=O)O)NC(=O)[C@H](CC(N)=O)NC(=O)[C@H](CCCCN)NC(=O)[C@H](CCC(=O)O)NC(=O)[C@H](CCC(N)=O)NC(=O)[C@H](CCC(N)=O)NC(=O)[C@H](CC(N)=O)NC(=O)[C@H](CCC(N)=O)NC(=O)[C@H](CO)NC(=O)[C@H](CCC(=O)O)NC(=O)[C@H](CCC(=O)O)NC(=O)[C@@H](NC(=O)[C@H](CC(C)C)NC(=O)[C@H](CO)NC(=O)[C@H](Cc6cnc[nH]6)NC(=O)[C@@H](NC(=O)[C@H](CC(C)C)NC(=O)[C@H](CO)NC(=O)[C@@H](NC(=O)[C@H](Cc6ccc(O)cc6)NC(=O)[C@H](CC(N)=O)NC(=O)[C@H](CC(N)=O)NC(C)=O)[C@@H](C)O)[C@@H](C)CC)[C@@H](C)CC)C(N)=O)nn5)C(C)(C)[C@@H]4CC[C@@]3(C)[C@]1(C)CC2 (Ac-NNYTSLIHSLIEESQNQQEKNEQELL[βAla]K(X2)-NH2)

Structure (SMILES) | EC50 [nM]
C=C(C)[C@@H]1CC[C@]2(C(=O)O)CC[C@]3(C)[C@H](CC[C@@H]4[C@@]5(C)CC[C@H](O)C(C)(C)[C@@H]5CC[C@]43C)[C@@H]12 | > 100000
